Read-outs that look alike come from different tables or passages of the source.
Tests used:
[1] = system: SARS-CoV-2 (England 02/2020/407073 isolate); assay: SARS-CoV-2 replication in Vero E6 cells, plaque assay; assay type: cell-based
[2] = system: Vero E6 cells; assay: Cytotoxicity in uninfected Vero E6 cells, MTT assay
[3] = biological target: SARS-CoV-2 RdRP (Severe acute respiratory syndrome coronavirus 2, UniProt P0DTD1); assay: SARS-CoV-2 RdRP RNA polymerization activity, in vitro fluorescent assay; assay type: biochemical; details: for inhibition of RdRP polymerization activity (in words): dose-response, relative to DMSO
[4] = system: SARS-CoV-2; details: cited from earlier work
[5] = parameters: method as in PMID 25251156; details: halted progression from phase II clinical trials; cited from earlier work
[6] = system: SARS-CoV-2; assay: Total and genomic viral RNA levels in cell lysates, RT-qPCR; assay type: cell-based; details: Vero E6 and Caco-2 cells, 48 hours after infection
[7] = purified RdRP, 2 hours at 37°C, middle point between top and bottom plateaus, read-out: relative IC50 (RdRP polymerization activity)
[8] = Severe acute respiratory syndrome coronavirus 2, Vero C1008, read-out: IC50 (50% decrease in the titre of supernatant virus), MOI 0.05, 48 h

Structure (SMILES) | inhibition of RdRP polymerization activity (in words) [3] | IC50 [3, 7] [µM] | IC50 [1, 8] [µM] | also measured
C/C1=C2/[N-]C([C@H](CC(N)=O)[C@@]2(C)CCC(=O)NC[C@@H](C)OP(=O)([O-])O[C@H]2[C@@H](O)[C@@H](n3cnc4cc(C)c(C)cc43)O[C@@H]2CO)[C@]2(C)N=C(/C(C)=C3N=C(/C=C4N=C1[C@@H](CCC(N)=O)C\4(C)C)[C@@H](CCC(N)=O)[C@]\3(C)CC(N)=O)[C@@H](CCC(N)=O)[C@]2(C)CC(N)=O.[CH2-][C@H]1O[C@@H](n2cnc3c(N)ncnc32)[C@@H](O)[C@@H]1O.[Co+3] [Cobamamide, cobamamide] | inhibited RdRP polymerization activity in a dose-dependent manner | 54.4 | – | IC50 ([1]; read-out: IC50 (50% decrease in the titre of supernatant virus), MOI 0.05, 48 h): 403 µM; cytotoxicity ([2]; highest dose of 1mM): up to 20%
CC(C)OC(=O)[C@H](C)N[P@+]([O-])(OC[C@H]1O[C@@](C#N)(c2ccc3c(N)ncnn23)[C@](C)(O)[C@@H]1OC(=O)C(C)C)Oc1ccccc1 [GS-6620] | – | – | – | efficacy against SARS-CoV-2 (in words) [4]: lack of efficacy against SARS-CoV-2
C/C1=C2/[N-][C@H]([C@H](CC(N)=O)[C@@]2(C)CCC(=O)NC[C@H](C)OP(=O)([O-])O[C@H]2[C@@H](O)[C@@H](n3cnc4cc(C)c(C)cc43)O[C@@H]2CO)[C@]2(C)N=C(/C(C)=C3N=C(/C=C4N=C1[C@@H](CCC(N)=O)C\4(C)C)[C@@H](CCC(N)=O)[C@]\3(C)CC(N)=O)[C@@H](CCC(N)=O)[C@]2(C)CC(N)=O.[CH3-].[Co+3] [Mecobalamin, methylcobalamin] | inhibited RdRP polymerization activity in a dose-dependent manner | 85.7 | – | –
CCC(CC)COC(=O)[C@H](C)N[P@](=O)(OC[C@H]1O[C@@](C#N)(c2ccc3c(N)ncnn23)[C@H](O)[C@@H]1O)Oc1ccccc1 [Remdesivir] | – | – | 1 | cytotoxic effects (in words) [2]: did not exert observable cytotoxic effects
C/C1=C2/[N-][C@H]([C@H](CC(N)=O)[C@@]2(C)CCC(=O)NC[C@@H](C)OP(=O)([O-])O[C@H]2[C@@H](O)[C@@H](n3cnc4cc(C)c(C)cc43)O[C@@H]2CO)[C@]2(C)N=C(/C(C)=C3N=C(/C=C4N=C1[C@@H](CCC(N)=O)C\4(C)C)[C@@H](CCC(N)=O)[C@]\3(C)CC(N)=O)[C@@H](CCC(N)=O)[C@]2(C)CC(N)=O.[Co+3].[OH-] [Hydroxocobalamin, hydroxocobalamin] | inhibited RdRP polymerization activity in a dose-dependent manner | 90.4 | – | –
COc1nc(N)nc2c1ncn2[C@@H]1O[C@H](COP(=O)(N[C@@H](C)C(=O)OCC(C)(C)C)Oc2cccc3ccccc23)[C@@H](O)[C@@]1(C)O (some centres unmarked) [BMS-986094] | inhibited RdRP polymerization activity in a dose-dependent manner | – | 26.6 | cardiac effects (in words) [5]: harmful cardiac effects; concentration at which toxic to cells ([2]; 48 h): > 100 µM; total and genomic viral RNA levels in cell lysates (in words) [6]: consistently decreasing; IC50 [3]: 18.4 µM
